# Measured values published in patent US20190083508A1, “USE OF OX1R ANTAGONISTS FOR THE TREATMENT OF INFLAMMATORY BOWEL DISEASES” (Inserm (Institut National De La Sante et de la Recherche …, priority 2014, published 2019).
# No end group written: not given here.
# Legend:
# DSS-induced colitis mice [1] = test: Cytokine assays in colon extracts of DSS-induced colitis mice; format: in vivo; conditions: daily ip 0.22 μmoles/kg, 7 days
# Experimental: FIG. 3: OXA effects on cytokines secretion in DSS-induced colitis mice. Right, Colons of DSS untreated mice (white), DSS treated mice (gray) and DSS treated mice associated to OxA treatment (black) were resected after animal sacrifice. Then, protein extraction was performed by tissue disruption. Cytokines were determined using Cytokine CBA kits (see Material and Methods). Left, after colon resection, RNA were extracted from colonic tissue and qPCR was performed using specific oligonucleotides for IL8 homolog and IL1B.
# These observations are confirmed by histologic aspect of colon epithelium (histologic scoring by a GI pathologist). Thus, OxA has probably an anti-inflammatory effect on DSS-induced colitis. To confirm this hypothesis, we have investigated the anti-inflammatory effect of OxA treatment on cytokines secretion in colon extracts from DSS-treated mice. […] In contrast, OxA has no effect on INFγ, IL10, and IL12 cytokine secretion in colon extracts (FIG. 3).
# Balb/c mice were orally treated by 5% (w/v) of Dextran Sulfate Sodium (DSS) for 7 days. Orexin treatment was carried out in DSS treated mice by daily intraperitoneal injection of OxA (0.22 μmoles/kg) for 7 days. Weight and colitis symptoms (diarrhea, blood in the stool . . . ) for each mouse was daily measured. After 7 days of treatment, animals were sacrificed and colons were resected to further analyses (size, histological aspect, cytokine assays). […] mice (IL10^−/− and Nox1^−/−) which develop a spontaneous colitis at 6/7 weeks of age were treated or not with OxA (0.22 μmoles/kg, 2 intraperitoneal injection/week for 21 days). After animal sacrifice colons were resected and histologic analysis was performed.
# Mice were sacrificed and colons were resected. Proteins were extracted from colon by tissue disruption in PBS using Tissue Lyser (Qiagen, Courtaboeuf, France). Various cytokines (see FIG. 3) were determined using Cytokine CBA kits (BD Sciences, Le Pont de Claix, France).
# DSS-treated mice = test: Length of colon from DSS-treated mice mimicking acute ulcerative colitis; format: in vivo; conditions: 5% DSS in drinking water; daily ip 20 μg; one week
# Experimental: FIG. 8: Effect of daily ip inoculation of OxA, Suvorexant and Almorexant on the length of colon from DSS- (dextran sulfate sodium) treated mice mimicking the acute ulcerative colitis disease. A. Mice were treated with 5% (w/v) DSS in drinking water and daily injected with 20 μg of OxA (OXA IP), 20 μg of Suvorexant (Suvo) or 20 μg of Almorexant (Almo). Control (wt) or treated DSS mice (DSS) were daily injected with 100 μl PBS. After one week of treatment, mice were sacrificed and the length of colon which represented a good marker of inflammation state, was measured. […] B. quantification of colon length from 5 different DSS-treated mice injected with OxA (DSS+OXA IP), Almorexant (DSS+Almo), Suvorexant (DSS+Suvo) or not injected (WT and DSS). NS, no significant; *, p<0.05; ** p<0.001
# The inventors also investigated the effect of daily intraperitoneal inoculation of OxA, Suvorexant and Almorexant on the length of colon from DSS- (dextran sulfate sodium) treated mice mimicking the acute ulcerative colitis disease.
# HEK-OX1R cells = test: Cell growth determination, HEK-OX1R cells; format: cell-based; conditions: 48 hr, 0.1 μM OxA or increasing concentrations of SB408124
# Experimental: (§1) FIG. 6: Determination of the inhibition of cellular growth of HEK-OX1R cells and colon adenocarcinoma cells (HT-29) induced by 0.1 μM of OxA or various concentrations of SB408124 antagonist. HEK-OX1R cells (black column) and HT-29 cells (white column) were incubated with 0.1 μM of OxA and indicated increasing concentration of SB408124, and cells were counted after 48 hr incubation. Results are expressed as the percentage of total viable cells.
# (§2) HEK-OX1R cells or colon adenocarcinoma HT-29 cells were seeded, grown and maintained at 37° C. in a humidified 5% CO2/air incubator. After 24 hr culture, cells were treated with or without Orexin-A peptide or SB408124 antagonist, previously dissolved in DMSO, to be tested at the concentration indicated in the figure legends. After 48 hr of treatment, adherent cells were harvested by TriplE (Life Technologies, Saint Aubin, France) and manually counted. Apoptosis was determined using the Guava PCA system and the Guava nexin kit.
# OX1R = target: T1, OX1R (Homo sapiens, UniProt O43613); test: Ca2+ mobilization assay in HEK-OX1R cells (FluoForte); format: cell-based
# T1 construct: HEK cells expressing recombinant native OX1R (HEK-OX1R); expressed in transfected cells; host or cells: HEK cells (HEK-OX1R)
# T1 sequence (O43613 1-425): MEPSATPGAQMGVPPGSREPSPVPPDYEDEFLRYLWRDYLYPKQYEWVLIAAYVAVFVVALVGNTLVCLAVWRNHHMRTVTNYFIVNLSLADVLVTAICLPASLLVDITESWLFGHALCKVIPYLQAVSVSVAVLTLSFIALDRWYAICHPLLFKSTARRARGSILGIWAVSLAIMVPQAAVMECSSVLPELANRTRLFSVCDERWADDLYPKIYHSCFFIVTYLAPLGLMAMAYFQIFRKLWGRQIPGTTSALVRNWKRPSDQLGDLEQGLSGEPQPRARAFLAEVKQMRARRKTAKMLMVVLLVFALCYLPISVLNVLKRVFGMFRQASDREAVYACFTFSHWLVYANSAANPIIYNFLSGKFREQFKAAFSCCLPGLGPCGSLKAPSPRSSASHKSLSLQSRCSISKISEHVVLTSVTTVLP
# Experimental: FIG. 5: Effect of orexin-A and SB408124 antagonist on Ca2+ mobilization in HEK-OX1R cells. Top, HEK-OX1R cells were incubated with fluorescence probe (FluoForte) for 45 min. at 37° C. according to FluoForte calcium assay kit (Enzo Life Sciences). 1 μM of OxA was added to cells and fluorescence emission was measured on TECAN Infinite 200 fluorospectrophotometer. Bottom, HEK-OX1R cells were incubated with fluorescence probe (FluoForte) for 45 min. at 37° C. and then incubated with 1 μM of SB408124 for 1 h at 37° C. After pre-incubation, 1 μM of OxA was added to cells and fluorescence emission was measured.
# HEK cells expressing recombinant native OX1R (HEK-OX1R) cells were seeded in 96-wells plate, grown and maintained at 37° C. in a humidified 5% CO2/air incubator. 80,000 cells/well were incubated with FluoForte probe according to FluoForte calcium assay kit (ENZO life Sciences, Farmingdale, N.Y., USA) for 45 min. at 37° C. and then incubated with or without 1 μM of […] antagonist for 1 h at 37° C. After pre-incubation, 1 μM of OxA was added and fluorescence was determined using TECAN Infinite 200 fluorospectrophotometer.
# [2] = test system: colon adenocarcinoma HT-29 cells; test: Cell growth determination, HT-29 cells; format: cell-based; conditions: 48 hr, 0.1 μM OxA or increasing concentrations of SB408124
# Experimental: as §1, §2
# [3] = test system: colon adenocarcinoma HT-29 cells; test: Apoptosis assay (annexin V-PE binding), HT-29 cells; format: cell-based; conditions: 48 h, 1 μM orexin-A or various concentrations of SB408124
# Experimental: FIG. 7: Effect of orexin-A and SB408124 antagonist on apoptosis in OX1R expressing colon adenocarcinoma cells, HT-29. HT-29 cells were challenged with 1 μM orexin-A or various concentration of SB408124 for 48 h. Apoptosis was measured by determination of annexin V-PE binding, and results are expressed as the percentage of apoptotic cells. Results are means±SE of three experiments. ***P<0.001.
# as §2
# DSS-induced colitis mice [4] = test: DSS-induced colitis mice, Disease Activity Index; format: in vivo, Balb/c mice; conditions: 5% DSS orally 7 days; daily ip 0.22 μmoles/kg
# Description: FIG. 2: OXA ameliorates the DAI (weight and colitis score) of DSS-induced colitis mice. Mice were orally treated with 5% DSS for 7 days in the presence or in the absence of daily intraperitoneal injection of OxA (0.22 μmoles/kg). Left, determination of gain or loss of weight in the absence of DSS treatment (Control, ▴), in the presence of DSS treatment (DSS, ▪) and in the presence of DSS associated to OxA treatment (DSS+OxA, ●). Right, evaluation of Disease Activity Index (DAI) scored by measuring weight, length of colon, diarrhea and blood presence in the stool in DSS untreated control mice (Control, ▴), in DSS treated mice (DSS, ▪) and in DSS treated mice associated to OxA treatment (DSS+OxA, ●).
# Based on these observations, we have investigated the effect of Orexin A (OxA) on acute inflammation in mice treated with Dextran Sulfate Sodium (DSS). OxA was preferentially chosen in these experiments since the presence of two disulphide bridges confers it more stability. DSS induces acute colitis characterized by weight loss, bloody diarrhea, intestinal ulcerations and infiltrations with granulocytes.
# (§3) Balb/c mice were orally treated by 5% (w/v) of Dextran Sulfate Sodium (DSS) for 7 days. […] Weight and colitis symptoms (diarrhea, blood in the stool . . . ) for each mouse was daily measured. […]
# EXCY2 mice = test: Spontaneous UC-like colitis in EXCY2 mice (IL10-/-; Nox1-/-), colon histology; format: in vivo; conditions: 10 week-old EXCY2 mice, 0.22 μmoles/kg, 2 IP/week during 3 weeks
# Experimental: FIG. 4: Histological aspect of colon mucosa in OxA treated EXCY2 mice (right) and non-treated EXCY2 mice (left). EXCY2 mice genetically invalidated for IL10 and Nox1 genes (IL10^−/− and Nox1^−/−) which develop spontaneous UC-like disease, were treated with OxA (0.22 μmoles/kg, 2 intraperitoneal injection/week for 21 days) (right) or untreated (left). After animal sacrifice colons were resected and histologic analysis was performed.
# DSS mouse model has been extensively used to decipher the mucosal inflammation in IBD, UC pathogenesis, and preclinical studies. However, mice show differential susceptibilities and responsiveness to DSS-induced colitis depending on their genetic background, gender. DSS model is a faithful model of inflammation but departs from Ulcerative Colitis in part for lack of the inflammation gradient from the rectum to the proximal colon usually observed in UC, any deregulation of ER stress in goblet cells known to be an early etiological factor of UC, and no digestive or extra-digestive complications of UC such as cholangitis and colorectal cancer, respectively. The use of genetically modified mice model represents a good alternative to chemically-induced colitis mice model. […]
# as §3
compound,measurement,setting,value
"OxA: Orexin A peptide with two disulphide bridges, agonist of OX1R (QPLPDCCRQKTCSCRLYELLHGAGNHAAGILTL; disulfide (positions not given here); ends not checked; also: two disulphide bridges, places not given here; UniProt O43612 34-66, looked up)",IL6 secretion in colon extracts,DSS-induced colitis mice [1],reduces the secretion
same,IL10 secretion in colon extracts,DSS-induced colitis mice [1],has no effect
same,IL12 secretion in colon extracts,DSS-induced colitis mice [1],has no effect
same,INFγ secretion in colon extracts,DSS-induced colitis mice [1],has no effect
same,TNFα secretion in colon extracts,DSS-induced colitis mice [1],reduces the secretion
same,IL1B in colon extracts,DSS-induced colitis mice [1]; qPCR per FIG. 3,reduces the secretion
same,IL8 homolog in colon extracts,DSS-induced colitis mice [1]; qPCR per FIG. 3,reduces the secretion
same,Protection from DSS induced acute ulcerative colitis (colon length),DSS-treated mice,protect mice from DSS induced acute ulcerative colitis disease
same,Inhibition of cellular growth,HEK-OX1R cells,induced a strong inhibition of cellular growth
same,Ca2+ mobilization (agonist effect),OX1R; 1 μM,induced a large and transient Ca^2+ mobilization
same,Inhibition of cellular growth,[2],induced a strong inhibition of cellular growth
same,Apoptosis (annexin V-PE binding),[3],induced an apoptotic effect
same,"Disease Activity Index (DAI) scored by weight, length of colon, diarrhea and blood in the stool",DSS-induced colitis mice [4],ameliorates
same,Effect on severe spontaneous colitis,EXCY2 mice,alleviated severe colitis
same,"Histological aspect of colonic mucosa (crypts aspect, crypt size, goblet cells, immune cells infiltration)",EXCY2 mice; vs vehicle treated,exhibited a normal colonic mucosa
CNC(=O)[C@@H](c1ccccc1)N1CCc2cc(OC)c(OC)cc2[C@@H]1CCc1ccc(C(F)(F)F)cc1 [Almorexant],Protection from DSS induced acute ulcerative colitis (colon length),DSS-treated mice,protect mice from DSS induced acute ulcerative colitis disease
Cc1ccc(-n2nccn2)c(C(=O)N2CCN(c3nc4cc(Cl)ccc4o3)CC[C@H]2C)c1 [Suvorexant],Protection from DSS induced acute ulcerative colitis (colon length),DSS-treated mice,protect mice from DSS induced acute ulcerative colitis disease
Cc1cc(NC(=O)Nc2ccc(N(C)C)cc2)c2cc(F)cc(F)c2n1 [SB408124],Inhibition of cellular growth,HEK-OX1R cells,induced also a strong inhibition in a dose-dependent manner of cellular growth
same,Effect on OxA-induced Ca2+ mobilization (antagonist effect),"OX1R; 1 μM preincubation 1 h, then 1 μM OxA",totally abolished the induced-Ca^2+ mobilization
same,Inhibition of cellular growth,[2],induced also a strong inhibition in a dose-dependent manner of cellular growth
same,Apoptosis (annexin V-PE binding),[3],able to induce in a dose-dependent manner cell apoptosis
